Holding throughout (assay): ≥ marks a high value that may be exact or a test limit, other limits are often not marked, values filed in µg/mL are converted to µM
Experiment [1] has as its system Candida albicans JCM 2085.
Experiment [2] deals with Staphylococcus aureus JCM 2874.
Experiment [3] has as its system Bacillus cereus JCM 2152.
Experiment [4] relates to Bacillus cereus ATCC 11778.
In experiment [5] the test system is Escherichia coli ATCC 25922.
Experiment [6] deals with Streptococcus pyogenes ATCC 19615.
The test system of experiment [7] is Pseudomonas aeruginosa ATCC 27853.
Experiment [8] relates to Klebsiella pneumoniae ATCC 700603.
In experiment [9] the test system is Serratia marcescens ATCC 21202.
Experiment [10] concerns Staphylococcus aureus ATCC 29213.
In experiment [11] the test system is Salmonella enterica subsp. enterica serovar Enteritidis ATCC 13076.
Experiment [12] concerns Pseudomonas aeruginosa PAO1.
Experiment [13] relates to Pseudomonas aeruginosa PA-W1.
Experiment [14] relates to Staphylococcus aureus.
The test system of experiment [15] is Staphylococcus aureus NCTC 8325-4.
The subject of experiment [16] is Klebsiella pneumoniae.
Experiment [17] concerns Escherichia coli K-12.
Experiment [18] relates to Escherichia coli CGMCC 1.8732.
In experiment [19] the test system is Bacillus subtilis CGMCC 1.3376.
For experiment [20], the system named is Pseudomonas aeruginosa CGMCC 1.2421.
Experiment [21] relates to Klebsiella pneumoniae CGMCC 1.1736.
Experiment [22] relates to Staphylococcus epidermidis CGMCC 1.4260.
For experiment [23], the system named is Staphylococcus aureus CGMCC 1.8721.
Experiment [24] concerns Pseudomonas aeruginosa Q14-0208.
The subject of experiment [25] is Staphylococcus aureus RN4220.
The subject of experiment [26] is Pseudomonas aeruginosa Q14-0890.
For experiment [27], the system named is Escherichia coli.
For experiment [28], the system named is Salmonella typhimurium SL1344.
Experiment [29] deals with Acinetobacter baumannii Q13-0717.
For experiment [30], the system named is Staphylococcus aureus NCTC 12493.
Experiment [31] relates to Acinetobacter baumannii Q12-0809.
For experiment [32], the system named is Acinetobacter baumannii.
Experiment [33] concerns Staphylococcus aureus Q14-0320.
In experiment [34] the test system is Listeria monocytogenes NCTC 11994.
Experiment [35] has as its system Enterococcus faecalis JH-2-2.
Experiment [36] deals with Staphylococcus aureus Q14-0325.
Experiment [37] deals with Klebsiella pneumoniae Q14-0095.
Experiment [38] concerns Campylobacter jejuni.
Experiment [39] has as its system Campylobacter jejuni NCTC 11351.
The subject of experiment [40] is Acinetobacter baumannii Q12-0867.
For experiment [41], the system named is Klebsiella pneumoniae NCTC 13442.
Experiment [42] concerns Staphylococcus aureus MRSA-15.
The subject of experiment [43] is Klebsiella pneumoniae Q14-0146.

In brackets after ≈: the same amount, converted by molar mass.

Broadly, the MIC is the lowest concentration that inhibits growth of the organism. Low values mean a more susceptible organism, high ones a less susceptible organism. As to `CC[C@H](C)[C@H](NC(=O)[C@H](CCCCN)NC(=O)[C@H](CO)NC(=O)[C@@H](NC(=O)[C@H](CC(C)C)NC(=O)[C@H](CO)NC(=O)[C@@H]1CCCN1C(=O)[C@H](CC(C)C)NC(=O)[C@H](Cc1ccccc1)NC(=O)[C@H](CC(N)=O)NC(=O)[C@H](C)NC(=O)[C@H](CC(C)C)NC(=O)[C@H](C)NC(=O)CNC(=O)[C@@H](NC(=O)[C@@H](NC(=O)[C@H](CO)NC(=O)CNC(=O)[C@H](Cc1ccccc1)NC(=O)[C@@H](N)Cc1ccccc1)[C@@H](C)O)[C@@H](C)CC)[C@@H](C)CC)C(=O)N[C@@H](CCCN=C(N)N)C(=O)N[C@@H](CC(N)=O)C(N)=O` [FFGSTIGALANFLPSLISKIRN], the minimal inhibitory concentration (MIC) is 27 µM (≈ 64 µg/mL) in [1], 27 µM (≈ 64 µg/mL) in experiment [2] and 6.76 µM (≈ 16 µg/mL) in experiment [3].

`CC[C@H](C)[C@H](NC(=O)[C@H](CC(=O)O)NC(=O)[C@H](CCSC)NC(=O)[C@H](CC(C)C)NC(=O)CN)C(=O)N[C@@H](Cc1ccccc1)C(=O)N[C@@H](CCCCN)C(=O)N[C@H](C(=O)N[C@@H](C)C(=O)N[C@H](C(=O)N[C@@H](CC(N)=O)C(=O)N[C@@H](CCCCN)C(=O)N[C@@H](CC(C)C)C(=O)N[C@@H](CC(C)C)C(=O)N[C@@H](C)C(=O)N[C@@H](C)C(=O)NCC(=O)N[C@@H](CCSC)C(=O)N[C@@H](CC(N)=O)C(=O)N[C@@H](CCCCN)C(=O)N1CCC[C@H]1C(=O)N[C@@H](CCCN=C(N)N)C(=O)N[C@H]1CSSC[C@@H](C(=O)O)NC(=O)[C@H](Cc2cnc[nH]2)NC(=O)[C@H](C)NC(=O)[C@H](C)NC(=O)[C@H](CCCCN)NC1=O)C(C)C)C(C)C` [GLMDIFKVAVNKLLAAGMNKPRCKAAHC]: the MIC in experiment [4] is 17.8 µM (≈ 53.4 µg/mL); in experiment [5] it was 9.35 µM (≈ 28 µg/mL); in experiment [6], 17.8 µM (≈ 53.4 µg/mL); in experiment [7], > 33.3 µM; in experiment [8], 9.35 µM (≈ 28 µg/mL); in experiment [9] it was 9.35 µM (≈ 28 µg/mL). Also, the minimal inhibitory concentration (MIC) in [10] is 9.35 µM (≈ 28 µg/mL); in [11], 17.8 µM (≈ 53.4 µg/mL).

For the molecule `CC(C)C[C@H](NC(=O)[C@H](CCCCN)NC(=O)[C@H](CCCCN)NC(=O)[C@H](CC(C)C)NC(=O)[C@H](CC(C)C)NC(=O)[C@H](CCCCN)NC(=O)[C@H](CCCCN)NC(=O)[C@H](CC(C)C)NC(=O)[C@H](CC(C)C)NC(=O)[C@H](CCCCN)NC(=O)[C@H](CCCCN)NC(=O)[C@@H](N)CC(C)C)C(N)=O` [LKKLLKKLLKKL], the MIC was determined as 7.81 µM (≈ 11.4 µg/mL) in experiment [12]; 15.6 µM (≈ 22.9 µg/mL) in [13]; 62.5 µM (≈ 91.6 µg/mL) in experiment [14]; 15.6 µM (≈ 22.9 µg/mL) in experiment [15]; 31.3 µM (≈ 45.9 µg/mL) in [16]; 7.81 µM (≈ 11.4 µg/mL) in experiment [17].

With `CC[C@H](C)[C@H](NC(=O)[C@H](CO)NC(=O)CNC(=O)[C@@H](NC(=O)[C@@H](N)CCCN=C(N)N)[C@@H](C)CC)C(=O)N[C@@H](CC(C)C)C(=O)NCC(=O)N[C@@H](C)C(=O)N[C@@H](CC(C)C)C(=O)N[C@@H](C)C(=O)N[C@@H](CCCCN)C(=O)NCC(=O)N[C@@H](CC(C)C)C(=O)N1CCC[C@H]1C(=O)N[C@H](C(=O)N[C@@H](CC(C)C)C(=O)N[C@H](C(=O)N[C@@H](CO)C(=O)N[C@@H](Cc1c[nH]c2ccccc12)C(=O)N[C@H](C(=O)N[C@@H](CCCCN)C(=O)N[C@@H](CC(N)=O)C(=O)N[C@@H](CCCN=C(N)N)C(N)=O)[C@@H](C)CC)[C@@H](C)CC)[C@@H](C)O` [RIGSILGALAKGLPTLISWIKNR], the MIC in experiment [18] came out at 12.5 µM (≈ 31 µg/mL); in experiment [19], 6.25 µM (≈ 15.5 µg/mL); in experiment [20], 6.25 µM (≈ 15.5 µg/mL); in experiment [21] it was 12.5 µM (≈ 31 µg/mL); in [22] it was 3.13 µM (≈ 7.75 µg/mL); in experiment [23], 6.25 µM (≈ 15.5 µg/mL).

As to `CSCC[C@H](NC(=O)[C@@H](N)[C@@H](C)O)C(=O)N[C@@H](CO)C(=O)N[C@@H](CC(C)C)C(=O)N[C@@H](CCCN=C(N)N)C(=O)N[C@@H](Cc1ccccc1)C(=O)N[C@@H](Cc1c[nH]c2ccccc12)C(=O)N[C@@H](CCCN=C(N)N)C(=O)N[C@@H](Cc1c[nH]c2ccccc12)C(=O)N[C@@H](CCCCN)C(=O)N[C@H](C(=O)N[C@@H](CCCN=C(N)N)C(=O)O)C(C)C` [TMSLRFWRWKVR], the MIC is ≥ 76.8 µM in experiment [24]; 38.4 µM (≈ 64 µg/mL) in experiment [12]; ≥ 38.4 µM in [25]; ≥ 38.4 µM in experiment [26]; 76.8 µM (≈ 128 µg/mL) in experiment [27]; ≥ 38.4 µM in [28]. Besides, the MIC in experiment [29] is 19.2 µM (≈ 32 µg/mL); in [30], ≥ 38.4 µM; in experiment [31] it was ≥ 38.4 µM; in experiment [32], ≥ 76.8 µM; in experiment [33], ≥ 76.8 µM; in experiment [34], ≥ 38.4 µM. In addition, the minimum inhibitory concentration (MIC) in experiment [35] is ≥ 38.4 µM; in experiment [7], 76.8 µM (≈ 128 µg/mL); in experiment [8], > 76.8 µM; in experiment [36], ≥ 76.8 µM; in experiment [37] it was ≥ 76.8 µM; in experiment [38] it was ≥ 76.8 µM. In addition, the MIC was 76.8 µM (≈ 128 µg/mL) in experiment [10]; ≥ 76.8 µM in experiment [39]; 9.6 µM (≈ 16 µg/mL) in experiment [40]; ≥ 76.8 µM in experiment [41]; ≥ 38.4 µM in experiment [17]; ≥ 38.4 µM in [42]. Further, the minimal inhibitory concentration (MIC) in [43] is ≥ 76.8 µM.
